A short description of the data set: gradient 5% acetonitrile 3 min, to 50% in 2 min, to 85% in 15 min, held 3 min, 100 µL/min. As to conditions: column: Zorbax Extend-C18 2.1 x 50 mm; eluents: water / acetonitrile, 0.1% formic acid. The gist of the method:
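Mixtures of ~100 pure standards were chromatographed on a Zorbax Extend-C18 column (2.1 × 50 mm, 1.8 μm) at 100 μL/min using water and acetonitrile, each with 0.1% formic acid. Detection used a quadrupole time-of-flight mass spectrometer in positive and negative ionization mode, and data collection spanned 3 months. Retention time was obtained from adduct peaks picked computationally and each checked manually.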
`O=C(C1CCN(c2ncnc3c2oc2ccccc23)CC1)N1CCN(c2ccccc2F)CC1` registered an RP-LC retention time of 832 s.
`Cc1c(Cl)cccc1NC(=O)CSc1nnc2c3cc(-c4ccc(F)cc4)nn3ccn12` had an RP-LC retention time of 936 s.
Next, `O=C(NCCc1ccccc1)Nc1cnn(-c2ncc(N3CCCCC3)cn2)c1`: 799 s; `N#Cc1ccc(-n2cnc(C(=O)Nc3cccc(C(F)(F)F)c3)c2)cc1`: 889 s.
The compound `CCN(CC)C(=O)CN1C(=O)C2CCCCN2c2ccc(S(=O)(=O)N3CCCC3)cc21` (stereo not drawn) had an RP-LC retention time of 832 s.
On to `O=C(c1ccc(Br)o1)N1CCC(c2cnn(-c3ccccc3)c2)CC1`, for which the RP-LC retention time is 957 s.
`COc1ccccc1-c1nc(Cc2noc(-c3cccc(F)c3)n2)c(C)o1` returned an RP-LC retention time of 1080 s.
With `CCc1ccc(NC(=O)N2CCN(c3cnn4c(CC)nnc4c3)CC2)cc1`, the RP-LC retention time is 698 s.
On to `Cc1cccn2c(Nc3ccc4c(c3)OCCO4)c(-c3ccc(Cl)cc3)nc12`, for which the RP-LC retention time was found to be 747 s.
Next, `Cc1nc(C)c(C(=O)NCc2ccc3c(c2)ncn3C(C)C)s1`: 568 s.
In turn, `Cc1ccc(NC(=O)NCC(c2cccnc2)c2cn(C)c3ccccc23)c(Cl)c1` (stereo not drawn) showed an RP-LC retention time of 768 s.
In turn, `C#CCCNC(=O)c1cccn(C)c1=O` returned an RP-LC retention time of 572 s.
Turning to `CCCNC(=O)N(CC(=O)N1CCc2sccc2C1COc1ccccc1)CC1CCCO1` (stereo not drawn), the RP-LC retention time came out at 911 s.
Turning to `Cc1ccc(-c2nnc(Cc3nc(-c4ccc5c(c4)OCO5)no3)o2)cc1F`, the RP-LC retention time came out at 1020 s.
Take `Cn1cc(-c2ccc3c(c2)CCN3C(=O)Cc2cccc(C(F)(F)F)c2)c2c(N)ncnc21`: the RP-LC retention time came out at 867 s.
In the case of `CCCc1cc(SCC(=O)Nc2nccs2)ncn1` it was 692 s; in that of `CCn1ncc(NC(=O)CCc2ccccc2)c(N2CCOCC2)c1=O`, 800 s; in that of `CC(NC(=O)Cn1c(=O)c(=O)n(C)c2ncccc21)c1ccccc1` (stereo not drawn), 677 s.
For `COc1cccc(CN2CCC(Oc3ccccc3-c3nc(-c4ccncc4)no3)C2)n1` (stereo not drawn), the RP-LC retention time was determined as 686 s.
In the case of `Cn1cc(NC(=O)N2CCN(c3ccccn3)CC2)c2ccccc2c1=O` it was 538 s.
Next, `CCCCNC(=O)C1c2cc(OC)c(OC)cc2C(=O)N(C)C1c1ccc(OC)cc1` (stereo not drawn): 764 s; `CC1Oc2ccc(S(=O)(=O)N3CCC(C(=O)N4CCN(c5ccccc5)CC4)CC3)cc2NC1=O` (stereo not drawn): 848 s.
Next, `Cc1ccccc1S(=O)(=O)Nc1ccc(C(=O)N2CCCC2C(=O)NCCC(C)C)cc1` (stereo not drawn): 807 s; `CN(C)C(=O)c1csc(S(=O)(=O)N2CCC(C(=O)N3CCc4ccccc43)CC2)c1`: 809 s.
`COc1ccc(-c2cn3c(CC(=O)Nc4cccc(C#N)c4)csc3n2)cc1OC` had an RP-LC retention time of 704 s.
In turn, `Cc1csc(-c2cc(S(=O)(=O)NCCC3=CCCCC3)cn2CC(=O)N2CCCCC2)n1` registered an RP-LC retention time of 1140 s.
Compound `CCn1c(SCC(=O)N2CCC(C(N)=O)CC2)nnc1-c1sc2ncccc2c1N` had an RP-LC retention time of 603 s.
The compound `O=C(c1ccoc1)N1CCCC1c1nc(C2CCOCC2)no1` (stereo not drawn) came in with an RP-LC retention time of 670 s.
On to `COc1ccc(-c2csc3c(=O)n(CC(C)C)cnc23)cc1`, for which the RP-LC retention time came out at 1020 s.
Take `Cc1cc(=O)n(CC(=O)Nc2ccccc2)c(N2CCCCC2)n1`: the RP-LC retention time was 670 s.
Turning to `Cc1ccccc1CNC(=O)C1(C)CCCN(C(=O)Nc2cc(Cl)ccc2C)C1` (stereo not drawn), the RP-LC retention time stood at 1090 s.
With `CCCCN(C)C(=O)Cn1c(=O)c(S(=O)(=O)c2ccccc2)cc2cc(C)ccc21`, the RP-LC retention time came to 953 s.
Next, `O=C(CCCc1nc(-c2cccnc2)no1)Nc1nc(-c2ccccc2)cs1`: 865 s; `Cc1csc(-c2cc(S(=O)(=O)N3CCC(C)CC3)cn2CC(=O)N2CCCCC2)n1`: 1130 s; `COC(=O)CCNC(=O)C1c2ccccc2C(=O)N(Cc2ccccc2)C12CCCC2` (stereo not drawn): 840 s.
In the case of `CCCNc1cc(N2CCC(CCC(=O)NCc3ccc(OC)cc3)CC2)ncn1` it was 657 s; in that of `Cn1nc(-c2nnc(-c3ccccc3)o2)c2c1CCN(S(=O)(=O)c1ccc(C(C)(C)C)cc1)C2`, 1150 s; in that of `O=C(Nc1ccc(-c2ccno2)cc1)C1CCN(C(=O)C2Sc3ccccc3NC2=O)CC1` (stereo not drawn), 766 s.
Compound `COc1cccc(-c2nc(C3CCN(S(=O)(=O)c4cccc(F)c4)CC3)no2)c1` yielded an RP-LC retention time of 1110 s.
On to `CS(=O)(=O)N1CCCC(C(=O)Nc2ccc3c(c2)C(=O)NC3=O)C1` (stereo not drawn), for which the RP-LC retention time was determined as 612 s.
Consider `Cc1ccc(CN(C(=O)COc2ccc(Cl)c(C)c2)C2CCS(=O)(=O)C2)o1` (stereo not drawn), for which the RP-LC retention time was 979 s.
For the compound `O=C(c1cnccn1)N1CCC(N2C(=O)C(O)C23CCCCC3)CC1` (stereo not drawn), the RP-LC retention time was determined as 590 s.
As to `COc1ccc(Nc2nc(-c3nnn(-c4cccc(Cl)c4)c3C)ns2)cc1OC`, the RP-LC retention time is 963 s.
In the case of `O=C(NCc1ccc2c(c1)OCO2)C1CCc2nc(N3CCCC3)ncc2C1` (stereo not drawn) it was 631 s.
The compound `CC1CC(C)CN(c2nccn3c(=O)n(CC(=O)Nc4ccc(F)cc4F)nc23)C1` (stereo not drawn) came in with an RP-LC retention time of 902 s.
`Cc1ccsc1C(=O)N1CCc2[nH]cnc2C12CCCCC2` came in with an RP-LC retention time of 606 s.
For `Cc1cccc(-c2nc(CNC(=O)CCC(F)(F)F)no2)c1`, the RP-LC retention time was determined as 870 s.
On to `CCc1nc(OCC(=O)Nc2ccc(Cl)c(C(F)(F)F)c2)c2ccccc2n1`, for which the RP-LC retention time was determined as 997 s.
Take `CCn1nc(CNC(=O)c2ccc(C#N)cc2)c2ccccc21`: the RP-LC retention time was 808 s.
Next, `O=S(=O)(c1ccc(C(F)(F)F)cc1)N1CCCC(Cn2cnc3cccnc32)C1` (stereo not drawn): 831 s; `O=C(NCCc1csc(-c2cccc(F)c2)n1)c1ccc2c(c1)OCO2`: 847 s; `CCc1nc2nc3c(cn2n1)C(=O)CC(C)(C)C3`: 693 s.
Next, `CCSCCOC(=O)C1=C(C)NC2=C(C(=O)CCC2)C1c1ccc(C(=O)OC)cc1` (stereo not drawn): 892 s; `CCN1C(=O)c2c(C(=O)NCCc3ccccc3)ncn2CC1(C)C(=O)NC1CCCC1` (stereo not drawn): 756 s.
Compound `COc1ccc(-c2cc3c(=O)n(Cc4nc(-c5ccccc5)oc4C)ccn3n2)cc1OC` returned an RP-LC retention time of 966 s.
In turn, `COc1ccc(C2C(C(=O)c3cccs3)=C(O)C(=O)N2CCCN2CCOCC2)cc1OC` (stereo not drawn) displayed an RP-LC retention time of 613 s.
For `C[C@H]1CN(C(=O)Cc2c[nH]c3ccccc23)C[C@@H]1c1nc(-c2cccnc2)no1`, the RP-LC retention time was 755 s.
`CCOC(=O)Cc1ccc(NC(=O)NC2CCN(c3ccc(F)cc3)C2=O)cc1` (stereo not drawn) registered an RP-LC retention time of 812 s.

(Values after the METLIN SMRT retention time set (Domingo-Almenara et al. 2019).)
